Source: patent US20070219178A1, “PREVENTIVE OR THERAPEUTIC AGENTS FOR MULTIPLE SCLEROSIS” (Eisai Co., Ltd., priority 2003, published 2007)

What was measured:
[1] = test system: experimental allergic encephalomyelitis (EAE) model; test: Experimental allergic encephalomyelitis (EAE) model, EAE scores; type: in vivo, Male C57BL/6 mice; details: MOG peptide-immunized mice; oral, 30 mg/kg in 0.5% MC, 10 ml/kg/administration, twice a day from post-immunization day 7; FIG. 1 and 2
[2] = molecular target: T1, Porcine kidney-derived DPP-IV (Sus scrofa, UniProt P22411); test: DPPIV-inhibiting activity assay; type: biochemical; details: porcine kidney DPP-IV 10 mU/ml, Gly-Pro-p-nitroanilide 0.33 mM, 20 minutes, absorbance at 405 nm
T1 construct: Porcine kidney-derived DPP-IV was dissolved in a reaction buffer; from tissue; host or cells: porcine kidney
Experimental: DPPIV-Inhibiting Activity Assay
Porcine kidney-derived DPP-IV was dissolved in a reaction buffer (50 mM Tris-HCl (pH 7.4)/0.1% BSA) at a concentration of 10 mU/ml. After 110 μl of this solution had been combined with 15 μl of an agent, the mixture was incubated at room temperature for 20 minutes. 25 μl of 2 mM Gly-Pro-p-nitroanilide was added (to a final concentration of 0.33 mM) to the solution to initiate the enzyme reaction. The reaction time was 20 minutes. 25 μl of IN phosphoric acid solution was added to the reaction solution to quench the reaction.

T1 sequence (P22411 whole entry): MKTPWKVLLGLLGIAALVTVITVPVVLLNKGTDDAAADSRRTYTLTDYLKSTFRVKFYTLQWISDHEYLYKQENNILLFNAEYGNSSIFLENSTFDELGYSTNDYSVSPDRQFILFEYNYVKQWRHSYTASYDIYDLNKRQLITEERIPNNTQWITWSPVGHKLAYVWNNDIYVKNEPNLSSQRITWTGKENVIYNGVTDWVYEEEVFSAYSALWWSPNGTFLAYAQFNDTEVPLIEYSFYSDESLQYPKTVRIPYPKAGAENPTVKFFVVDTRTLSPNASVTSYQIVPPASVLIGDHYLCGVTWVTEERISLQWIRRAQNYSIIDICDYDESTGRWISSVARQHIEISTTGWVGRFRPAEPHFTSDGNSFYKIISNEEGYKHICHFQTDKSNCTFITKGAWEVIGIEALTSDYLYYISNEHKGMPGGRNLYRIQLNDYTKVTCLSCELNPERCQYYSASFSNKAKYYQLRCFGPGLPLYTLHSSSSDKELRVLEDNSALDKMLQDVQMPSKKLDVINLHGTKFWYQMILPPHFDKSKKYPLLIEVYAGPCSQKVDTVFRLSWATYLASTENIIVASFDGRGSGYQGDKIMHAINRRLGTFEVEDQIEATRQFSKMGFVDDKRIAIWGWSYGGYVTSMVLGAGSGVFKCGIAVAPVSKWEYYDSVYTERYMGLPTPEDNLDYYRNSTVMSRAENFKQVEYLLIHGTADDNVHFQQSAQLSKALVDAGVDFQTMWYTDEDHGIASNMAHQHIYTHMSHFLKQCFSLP

Compound | effect on development of EAE symptoms compared to control group (MC solution) [1] | IC50 [2]
CC#CCn1c(N2CCNCC2)nc2c1c(=O)n(C)c(=O)n2C [Compound 1X, 7-(2-butynyl)-1,3-dimethyl-8-(piperazin-1-yl)-3,7-dihydropurine-2,6-dione] | definite suppressing effects | 
CC#CCn1c(N2CCCC(N)C2)nc2cnn(C)c(=O)c21.O=C(O)C(F)(F)F (stereo not shown) [Example 120, 2-(3-Aminopiperidin-1-yl)-3-(2-butynyl)-5-methyl-3,5-dihydroimidazo[4,5-d]pyridazin-4-one trifluoroacetate] | definite suppressing effects | 
CC#CCn1c(N2CCNCC2)nc2nc(Oc3ccccc3C(N)=O)n(C)c(=O)c21 [Example 122, 2-[7-(2-Butynyl)-1-methyl-6-oxo-8-(piperazin-1-yl)-6,7-dihydro-1H-purin-2-yloxy]benzamide] | definite suppressing effects | 
Methyl 2-[7-(2-butynyl)-1-methyl-6-oxo-8-(piperazin-1-yl)-6,7-dihydro-1H-purin-2-yloxy]phenylacetate trifluoroacetate [Example 4] |  | 211 nM
